Test systems include NCI-H226 lung; K-562 leukemia; HCC-2998 colon; OVCAR-8 ovarian; SW-620 colon; SN12C renal; 786-0 renal; SK-MEL-28 melanoma; MALME-3M melanoma; SF-268 CNS; NCI-H460 lung; MCF7 breast; IGROV1 ovarian; U251 CNS.
What all share (assay): growth of human tumour cells (NCI), 48 h

SMILES strings stand for the structures.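 Cultured in 96-well plates, cells were exposed to test compound for 48 hours across five concentrations. TGI denotes the concentration required for complete inhibition of growth.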 A value given as a limit tells only on which side of the number the result lay.

Turning to `N#CCN1CCN(CC#N)CCN(CC#N)CCN(CC#N)CC1`, the TGI with NCI-H226 lung, in the assay with K-562 leukemia, in the assay with HCC-2998 colon, in the assay with OVCAR-8 ovarian, in the assay with SW-620 colon and in the assay on SN12C renal was greater than 100 µM in each case. Also, the TGI in the assay with 786-0 renal, in the assay with SK-MEL-28 melanoma, in the assay on MALME-3M melanoma, in the assay on SF-268 CNS, in the assay on NCI-H460 lung and in the assay on MCF7 breast was greater than 100 µM each time. Moreover, the TGI with IGROV1 ovarian and in the assay with U251 CNS was greater than 100 µM each time.

For `Cn1c(-c2cccs2)cc(-c2ccsc2)c1-c1cccs1`, the TGI in the assay with NCI-H226 lung, with K-562 leukemia, in the assay with HCC-2998 colon, in the assay with OVCAR-8 ovarian, in the assay on SW-620 colon and in the assay with SN12C renal was greater than 100 µM in each case. The TGI in the assay with 786-0 renal, in the assay on SK-MEL-28 melanoma, in the assay on MALME-3M melanoma, in the assay on SF-268 CNS, with NCI-H460 lung and with MCF7 breast was greater than 100 µM in each case. For the same compound, the TGI in the assay with IGROV1 ovarian and with U251 CNS was greater than 100 µM each time.

On to `CN(C)CCN=C1Nc2ccccc2C(=O)N2CSCC12` (stereo unspecified), for which the TGI with NCI-H226 lung, with K-562 leukemia, in the assay with HCC-2998 colon, with OVCAR-8 ovarian, with SW-620 colon and with SN12C renal was greater than 100 µM each time. In addition, the TGI with 786-0 renal, with SK-MEL-28 melanoma, in the assay on MALME-3M melanoma, in the assay on SF-268 CNS, in the assay with NCI-H460 lung and in the assay on MCF7 breast was greater than 100 µM throughout. Moreover, the TGI in the assay on IGROV1 ovarian and with U251 CNS was greater than 100 µM each time.

For `CC1(C)N([O-])[N+](=O)C1(Br)c1ccccc1` (stereo unspecified), the TGI in the assay with NCI-H226 lung, with K-562 leukemia, in the assay on HCC-2998 colon, in the assay on OVCAR-8 ovarian, in the assay on SW-620 colon and with SN12C renal was greater than 100 µM in each case. Also, the TGI in the assay with 786-0 renal, with SK-MEL-28 melanoma, in the assay with MALME-3M melanoma, in the assay with SF-268 CNS, with NCI-H460 lung and in the assay on MCF7 breast was greater than 100 µM throughout. Further, the TGI with IGROV1 ovarian and with U251 CNS was greater than 100 µM throughout.

With `O=S1(=O)c2ccccc2-c2nccc3ccnc1c23`, the TGI in the assay on NCI-H226 lung was greater than 100 µM; with K-562 leukemia, greater than 100 µM; in the assay with HCC-2998 colon, 28.6 µM; in the assay with OVCAR-8 ovarian, greater than 100 µM; in the assay with SW-620 colon it was greater than 100 µM; with SN12C renal it was 94.1 µM. Also, the TGI is greater than 100 µM in the assay with 786-0 renal; greater than 100 µM in the assay on SK-MEL-28 melanoma; greater than 100 µM with MALME-3M melanoma; greater than 100 µM with SF-268 CNS; 76.1 µM in the assay with NCI-H460 lung; greater than 100 µM with MCF7 breast. Moreover, the TGI with IGROV1 ovarian and with U251 CNS was greater than 100 µM in each case.

As for `Nc1ncc(N)c(NCC2(CO)CC(CCc3ccccc3)C2)n1` (stereo unspecified), the TGI with NCI-H226 lung stood at 18.4 µM; with K-562 leukemia it was 12.9 µM; in the assay with HCC-2998 colon it was 23.7 µM; in the assay on OVCAR-8 ovarian, 23.7 µM; in the assay with SW-620 colon it was 23.9 µM; in the assay on SN12C renal, 24.9 µM. Also, the TGI in the assay on 786-0 renal was 22.5 µM; in the assay on SK-MEL-28 melanoma it was 27.9 µM; with MALME-3M melanoma, 23.7 µM; with SF-268 CNS it was greater than 43 µM; in the assay on NCI-H460 lung it was 30.5 µM; with MCF7 breast, 15.9 µM. Besides, the TGI in the assay with IGROV1 ovarian is 22.4 µM; in the assay on U251 CNS, 19.6 µM.

Consider `COCCNC1CCC(=O)c2[nH]c3ccccc3c21` (stereo unspecified), for which the TGI in the assay on NCI-H226 lung, with K-562 leukemia, in the assay with HCC-2998 colon, in the assay with OVCAR-8 ovarian, with SW-620 colon and in the assay with SN12C renal was greater than 100 µM each time. In addition, the TGI with 786-0 renal, in the assay on SK-MEL-28 melanoma, with MALME-3M melanoma, in the assay on SF-268 CNS, with NCI-H460 lung and in the assay on MCF7 breast was greater than 100 µM throughout. Besides, the TGI with IGROV1 ovarian and in the assay on U251 CNS was greater than 100 µM in each case.

As to `CCOC(=O)CON=c1c2ccccc2ccc2ccccc12`, the TGI in the assay with NCI-H226 lung, with K-562 leukemia, in the assay on HCC-2998 colon, in the assay with OVCAR-8 ovarian, in the assay with SW-620 colon and with SN12C renal was greater than 100 µM in each case. Also, the TGI with 786-0 renal, in the assay on SK-MEL-28 melanoma, with MALME-3M melanoma, with SF-268 CNS, in the assay with NCI-H460 lung and with MCF7 breast was greater than 100 µM throughout. The TGI in the assay on IGROV1 ovarian and with U251 CNS was greater than 100 µM in each case.

For the compound `C=C1C(=O)OC2/C=C(\C)CC/C=C(\C)CC(OC(=O)/C(=C/CO)CO)[C@@H]12` (stereo partly specified), the TGI was greater than 80.4 µM with NCI-H226 lung; 9.21 µM with K-562 leukemia; 33.5 µM with HCC-2998 colon; 4.07 µM in the assay with OVCAR-8 ovarian; 3.36 µM in the assay with SW-620 colon; 27.2 µM with SN12C renal. Besides, the TGI with 786-0 renal is 11.5 µM; in the assay with SK-MEL-28 melanoma, 31.2 µM; in the assay with MALME-3M melanoma it was 5.81 µM; with SF-268 CNS, 45 µM; in the assay on NCI-H460 lung, 48.8 µM; in the assay on MCF7 breast, 22.9 µM. Moreover, the TGI in the assay with IGROV1 ovarian worked out at 26.1 µM; in the assay with U251 CNS it was 4.71 µM.

The record behind these values is PubChem BioAssay (NCI).
